# Test results as given in patent US20250059217A1, “HETEROCYCLIC COMPOUNDS AND METHODS OF PREPARATION THEREOF” (priority 2021, published 2025).
# Where a name gives a salt, the structure may show the parent alone. Read-outs that look alike come from different tables or passages of the source.
# Tests used:
# 5-HT2A receptor = target: T1, 5-HT2A receptor (Homo sapiens, UniProt P28223); test: Serotonin receptor 5-HT2 functional assay (Gq dissociation BRET or Gq-dependent calcium flux), 5-HT2A; assay type: cell-based; details: for 5-HT2A BRET Eff %: efficacy relative to 4-hydroxytryptamine
# T1 construct: expressed in transfected cells; host or cells: HEK293T
# 5-HT2B receptor = target: T2, 5-HT2B receptor (Homo sapiens, UniProt P41595); test: Serotonin receptor 5-HT2 functional assay (Gq dissociation BRET or Gq-dependent calcium flux), 5-HT2B; assay type: cell-based; details: for 5-HT2B BRET Eff %: efficacy relative to 4-hydroxytryptamine
# T2 construct: expressed in transfected cells; host or cells: HEK293T
# 5-HT2C receptor = target: T3, 5-HT2C receptor (Homo sapiens, UniProt P28335); test: cell-based
# T3 construct: expressed in transfected cells; host or cells: HEK293T
# T3 sequence (P28335 33-458): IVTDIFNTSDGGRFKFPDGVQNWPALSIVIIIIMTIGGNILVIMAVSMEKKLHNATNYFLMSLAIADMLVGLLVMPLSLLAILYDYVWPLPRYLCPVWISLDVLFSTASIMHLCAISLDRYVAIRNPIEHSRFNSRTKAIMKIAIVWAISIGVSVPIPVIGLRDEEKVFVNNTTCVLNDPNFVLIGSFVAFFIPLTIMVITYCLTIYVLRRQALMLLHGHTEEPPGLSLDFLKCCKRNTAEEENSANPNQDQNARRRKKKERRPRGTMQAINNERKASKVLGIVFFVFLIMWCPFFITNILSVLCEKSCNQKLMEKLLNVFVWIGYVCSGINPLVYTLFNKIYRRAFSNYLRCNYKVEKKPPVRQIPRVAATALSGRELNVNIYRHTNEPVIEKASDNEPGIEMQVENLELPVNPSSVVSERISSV
# other receptor sites [1] = test: Functional activity at other receptor sites relative to psilocin (Table 5), further receptors; details: compared with psilocin; for 5-HT1A Eff %: 5-HT1A receptor; for 5-HT1B Eff %: 5-HT1B receptor; for 5-HT1D Eff %: 5-HT1D receptor; for 5-HT1E Eff %: 5-HT1E receptor; for 5-HT4 Eff %: 5-HT4 receptor; for 5-HT5A Eff %: 5-HT5A receptor; for 5-HT7 Eff %: 5-HT7 receptor
# other receptor sites [2] = target: other receptor sites (Homo sapiens, UniProt P47898); test: as above; details: read-out: 5-HT5A EC50, 5-HT5A receptor, compared with psilocin
# other receptor sites [3] = target: other receptor sites (Homo sapiens, UniProt P28221); test: as above; details: read-out: 5-HT1D EC50, 5-HT1D receptor, compared with psilocin
# other receptor sites [4] = target: T4, other receptor sites (Homo sapiens, UniProt P08908); test: as above; details: read-out: 5-HT1A EC50, 5-HT1A receptor, compared with psilocin
# T4 sequence (P08908 1-422): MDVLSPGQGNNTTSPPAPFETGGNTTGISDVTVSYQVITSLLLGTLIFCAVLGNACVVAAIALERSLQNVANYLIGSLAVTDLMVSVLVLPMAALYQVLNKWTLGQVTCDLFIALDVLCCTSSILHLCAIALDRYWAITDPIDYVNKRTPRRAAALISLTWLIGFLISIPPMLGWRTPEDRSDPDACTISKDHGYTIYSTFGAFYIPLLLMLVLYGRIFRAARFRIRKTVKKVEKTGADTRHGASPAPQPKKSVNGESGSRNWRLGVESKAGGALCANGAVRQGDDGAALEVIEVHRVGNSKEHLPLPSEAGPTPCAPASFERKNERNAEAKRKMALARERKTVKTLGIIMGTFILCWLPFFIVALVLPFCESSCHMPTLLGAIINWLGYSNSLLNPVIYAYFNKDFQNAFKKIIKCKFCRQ
# other receptor sites [5] = target: other receptor sites (Homo sapiens, UniProt Q13639); test: as above; details: read-out: 5-HT4 EC50, 5-HT4 receptor, compared with psilocin
# other receptor sites [6] = target: other receptor sites (Homo sapiens, UniProt P28566); test: as above; details: read-out: 5-HT1E EC50, 5-HT1E receptor, compared with psilocin
# other receptor sites [7] = target: other receptor sites (Homo sapiens, UniProt P34969); test: as above; details: read-out: 5-HT7 EC50, 5-HT7 receptor, compared with psilocin
# other receptor sites [8] = target: other receptor sites (Homo sapiens, UniProt P28222); test: as above; details: read-out: 5-HT1B EC50, 5-HT1B receptor, compared with psilocin
# 5-HT1F receptor = target: T5, 5-HT1F receptor (Homo sapiens, UniProt P30939); test: Functional activity at other receptor sites relative to psilocin (Table 5), 5-HT1F; details: for 5-HT1F Eff %: Table 5, 5-HT1F receptor, compared with psilocin
# T5 sequence (P30939 1-366): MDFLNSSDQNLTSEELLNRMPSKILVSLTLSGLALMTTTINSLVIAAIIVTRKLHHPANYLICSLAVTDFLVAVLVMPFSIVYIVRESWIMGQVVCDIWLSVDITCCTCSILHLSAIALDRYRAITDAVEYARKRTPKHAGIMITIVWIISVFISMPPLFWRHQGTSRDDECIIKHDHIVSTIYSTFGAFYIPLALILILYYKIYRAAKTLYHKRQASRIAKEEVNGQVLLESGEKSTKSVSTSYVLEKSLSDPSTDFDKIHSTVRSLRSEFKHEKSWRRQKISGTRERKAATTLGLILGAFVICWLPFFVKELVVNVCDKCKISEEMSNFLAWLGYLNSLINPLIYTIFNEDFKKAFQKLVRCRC
# 5-HT6 receptor = 5-HT6 receptor (Homo sapiens, UniProt P50406); test: Functional activity at other receptor sites relative to psilocin (Table 5), 5-HT6; details: for 5-HT6 Eff %: Table 5, 5-HT6 receptor, compared with psilocin
# [9] = Table 4, at least three replicate trials
# [10] = Table 4, relative to 4-hydroxytryptamine, at least three replicate trials, read-out: 5-HT2A BRET EC50
# [11] = Table 4, relative to 4-hydroxytryptamine, at least three replicate trials
# [12] = Table 4, efficacy relative to 4-hydroxytryptamine, at least three replicate trials
# [13] = Table 4, relative to 4-hydroxytryptamine, at least three replicate trials, read-out: 5-HT2C BRET EC50
# [14] = Table 4, relative to 4-hydroxytryptamine, at least three replicate trials, read-out: 5-HT2B BRET EC50
# [15] = Table 5, 5-HT2A receptor, compared with psilocin
# [16] = Table 5, 5-HT2B receptor, compared with psilocin
# T2 sequence (P41595 whole entry): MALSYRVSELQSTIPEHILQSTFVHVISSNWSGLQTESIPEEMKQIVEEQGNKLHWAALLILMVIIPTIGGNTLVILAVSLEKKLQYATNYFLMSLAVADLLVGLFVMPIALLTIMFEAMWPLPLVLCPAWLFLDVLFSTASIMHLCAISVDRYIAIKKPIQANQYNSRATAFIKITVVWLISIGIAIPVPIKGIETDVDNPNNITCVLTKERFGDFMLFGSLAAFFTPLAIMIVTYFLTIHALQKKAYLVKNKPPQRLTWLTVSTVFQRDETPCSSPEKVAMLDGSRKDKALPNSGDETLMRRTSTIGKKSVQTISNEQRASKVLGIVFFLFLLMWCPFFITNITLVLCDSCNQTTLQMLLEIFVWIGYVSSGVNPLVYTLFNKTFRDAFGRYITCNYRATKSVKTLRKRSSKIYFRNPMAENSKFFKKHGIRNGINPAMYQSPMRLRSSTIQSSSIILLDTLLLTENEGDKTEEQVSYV
# 5-HT6 receptor, sequence (P50406 whole entry): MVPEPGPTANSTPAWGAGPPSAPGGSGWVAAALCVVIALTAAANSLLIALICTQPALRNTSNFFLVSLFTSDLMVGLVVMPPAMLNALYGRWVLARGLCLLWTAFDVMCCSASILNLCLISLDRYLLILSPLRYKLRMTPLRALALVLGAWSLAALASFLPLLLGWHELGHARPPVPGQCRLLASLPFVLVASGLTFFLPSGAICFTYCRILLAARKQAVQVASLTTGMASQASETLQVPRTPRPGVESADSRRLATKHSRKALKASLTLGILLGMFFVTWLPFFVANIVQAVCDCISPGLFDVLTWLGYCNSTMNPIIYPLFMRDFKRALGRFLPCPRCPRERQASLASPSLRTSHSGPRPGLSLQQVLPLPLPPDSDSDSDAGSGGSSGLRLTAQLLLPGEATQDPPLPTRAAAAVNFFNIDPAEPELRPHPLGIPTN
# T1 sequence (P28223 whole entry): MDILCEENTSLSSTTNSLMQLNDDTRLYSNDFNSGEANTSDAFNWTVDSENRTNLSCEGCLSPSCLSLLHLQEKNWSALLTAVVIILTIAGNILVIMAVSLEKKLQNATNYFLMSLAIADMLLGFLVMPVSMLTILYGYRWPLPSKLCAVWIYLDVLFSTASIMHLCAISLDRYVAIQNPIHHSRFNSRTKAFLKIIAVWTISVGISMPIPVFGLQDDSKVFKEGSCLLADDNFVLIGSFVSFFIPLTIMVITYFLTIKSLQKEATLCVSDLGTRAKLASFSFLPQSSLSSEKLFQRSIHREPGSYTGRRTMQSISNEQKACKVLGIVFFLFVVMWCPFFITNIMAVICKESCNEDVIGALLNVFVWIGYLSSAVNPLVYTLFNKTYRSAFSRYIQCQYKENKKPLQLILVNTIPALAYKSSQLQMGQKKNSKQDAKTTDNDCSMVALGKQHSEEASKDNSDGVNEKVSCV
# other receptor sites (Homo sapiens, UniProt Q13639), sequence (Q13639 whole entry): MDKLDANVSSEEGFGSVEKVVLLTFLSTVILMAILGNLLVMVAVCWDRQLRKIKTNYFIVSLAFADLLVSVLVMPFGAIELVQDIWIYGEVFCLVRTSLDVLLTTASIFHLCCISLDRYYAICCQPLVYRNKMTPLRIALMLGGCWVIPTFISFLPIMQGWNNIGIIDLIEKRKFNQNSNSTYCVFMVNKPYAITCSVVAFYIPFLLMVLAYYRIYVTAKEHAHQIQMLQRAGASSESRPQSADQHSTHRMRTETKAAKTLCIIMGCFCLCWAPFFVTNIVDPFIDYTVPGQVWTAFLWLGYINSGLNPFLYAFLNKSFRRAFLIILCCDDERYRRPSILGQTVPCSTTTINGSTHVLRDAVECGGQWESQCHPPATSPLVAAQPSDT
# other receptor sites (Homo sapiens, UniProt P34969), sequence (P34969 whole entry): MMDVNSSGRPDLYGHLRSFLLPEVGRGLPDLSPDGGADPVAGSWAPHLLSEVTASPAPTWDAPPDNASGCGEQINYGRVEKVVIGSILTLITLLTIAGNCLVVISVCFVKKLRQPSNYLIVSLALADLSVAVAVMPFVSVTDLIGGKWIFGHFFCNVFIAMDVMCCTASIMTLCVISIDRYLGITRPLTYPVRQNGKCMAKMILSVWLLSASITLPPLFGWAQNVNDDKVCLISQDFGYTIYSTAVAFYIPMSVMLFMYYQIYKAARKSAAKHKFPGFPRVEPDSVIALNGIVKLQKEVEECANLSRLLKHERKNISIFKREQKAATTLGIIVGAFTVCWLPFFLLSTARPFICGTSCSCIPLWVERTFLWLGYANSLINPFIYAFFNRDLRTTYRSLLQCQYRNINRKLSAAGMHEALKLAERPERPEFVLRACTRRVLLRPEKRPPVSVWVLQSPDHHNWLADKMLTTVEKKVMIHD
# other receptor sites (Homo sapiens, UniProt P28566), sequence (P28566 whole entry): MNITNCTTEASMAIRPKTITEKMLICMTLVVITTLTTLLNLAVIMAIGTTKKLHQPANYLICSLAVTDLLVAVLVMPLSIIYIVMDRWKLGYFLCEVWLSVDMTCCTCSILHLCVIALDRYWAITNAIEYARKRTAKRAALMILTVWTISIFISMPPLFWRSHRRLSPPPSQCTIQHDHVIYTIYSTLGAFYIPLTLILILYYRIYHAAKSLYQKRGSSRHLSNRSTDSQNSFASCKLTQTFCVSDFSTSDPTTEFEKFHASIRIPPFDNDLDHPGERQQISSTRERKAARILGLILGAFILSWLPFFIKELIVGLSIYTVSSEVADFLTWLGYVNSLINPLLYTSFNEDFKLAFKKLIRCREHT
# other receptor sites (Homo sapiens, UniProt P28222), sequence (P28222 whole entry): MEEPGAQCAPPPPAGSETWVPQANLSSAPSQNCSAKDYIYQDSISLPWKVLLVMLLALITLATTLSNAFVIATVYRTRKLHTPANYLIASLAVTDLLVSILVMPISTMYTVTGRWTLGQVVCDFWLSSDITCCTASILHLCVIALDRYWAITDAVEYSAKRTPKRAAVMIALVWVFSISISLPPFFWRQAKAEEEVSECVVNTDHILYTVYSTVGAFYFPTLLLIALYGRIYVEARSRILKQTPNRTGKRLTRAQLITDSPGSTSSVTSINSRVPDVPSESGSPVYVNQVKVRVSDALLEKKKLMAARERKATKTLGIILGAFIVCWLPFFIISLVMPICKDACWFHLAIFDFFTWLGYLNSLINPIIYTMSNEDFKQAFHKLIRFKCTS
# other receptor sites (Homo sapiens, UniProt P47898), sequence (P47898 whole entry): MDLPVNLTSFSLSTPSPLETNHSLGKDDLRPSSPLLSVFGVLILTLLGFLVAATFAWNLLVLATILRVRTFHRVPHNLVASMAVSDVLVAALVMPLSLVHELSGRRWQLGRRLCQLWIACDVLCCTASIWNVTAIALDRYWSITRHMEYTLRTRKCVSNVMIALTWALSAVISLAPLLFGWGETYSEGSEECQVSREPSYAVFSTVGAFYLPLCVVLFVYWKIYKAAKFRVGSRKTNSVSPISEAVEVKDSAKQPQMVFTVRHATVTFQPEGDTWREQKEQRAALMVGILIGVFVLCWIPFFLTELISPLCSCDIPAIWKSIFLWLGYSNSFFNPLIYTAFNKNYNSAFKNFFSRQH
# other receptor sites (Homo sapiens, UniProt P28221), sequence (P28221 whole entry): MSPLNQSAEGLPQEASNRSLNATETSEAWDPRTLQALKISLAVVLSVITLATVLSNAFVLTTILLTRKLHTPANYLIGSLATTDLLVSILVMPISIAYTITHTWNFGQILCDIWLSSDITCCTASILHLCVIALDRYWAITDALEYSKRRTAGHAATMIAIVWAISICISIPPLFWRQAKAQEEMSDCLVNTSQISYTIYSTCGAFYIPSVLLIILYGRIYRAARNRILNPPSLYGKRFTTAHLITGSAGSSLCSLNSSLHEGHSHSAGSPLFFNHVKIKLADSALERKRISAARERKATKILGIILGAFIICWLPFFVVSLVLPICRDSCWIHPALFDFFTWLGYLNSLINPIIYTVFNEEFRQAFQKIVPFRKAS
smiles,measurement,setting,value
"Cc1ccc(OCc2ccc(C(F)(F)F)cc2)c2c(CCN(C)C)c[nH]c12 [Compound 39, Dimethyl[2-[7-methyl-4-[4-(trifluoromethyl)benzyloxy]indol-3-yl]ethyl]amine]",5-HT2A BRET Eff %,5-HT2A receptor; [9],90%
same,EC50,5-HT2A receptor; [10],7660 nM
same,5-HT2B BRET Eff %,5-HT2B receptor; [9],inactive
same,5-HT2B BRET EC50 (nM),5-HT2B receptor; [11],inactive
same,5-HT2C BRET Eff %,5-HT2C receptor; [12],81%
same,EC50,5-HT2C receptor; [13],131 nM
"CN(C)CCc1c[nH]c2c(C#N)ccc(O)c12 [Compound 64, 3-[2-(Dimethylamino)ethyl]-4-hydroxyindole-7-carbonitrile]",EC50,5-HT2A receptor,267 nM
same,5-HT2A BRET Eff %,5-HT2A receptor; [9],49%
same,5-HT2B BRET Eff %,5-HT2B receptor; [9],inactive
same,5-HT2B BRET EC50 (nM),5-HT2B receptor; [11],inactive
same,5-HT2C BRET Eff %,5-HT2C receptor,79%
same,EC50,5-HT2C receptor,88 nM
"CN(C)CCc1c[nH]c2c(C(N)=O)ccc(O)c12 [Compound 65, 3-[2-(Dimethylamino)ethyl]-4-hydroxyindole-7-carboxamide]",5-HT2A BRET Eff %,5-HT2A receptor; [9],inactive
same,5-HT2A BRET EC50 (nM),5-HT2A receptor; [11],inactive
same,5-HT2B BRET Eff %,5-HT2B receptor; [9],inactive
same,5-HT2B BRET EC50 (nM),5-HT2B receptor; [11],inactive
same,5-HT2C BRET Eff %,5-HT2C receptor; [12],69%
same,EC50,5-HT2C receptor; [13],9960 nM
"Cc1ccc(O)c2c(C[C@H]3CCN3C)c[nH]c12 [Compound 77, 7-Methyl-3-[((S)-1-methylazetidin-2-yl)methyl]indol-4-ol]",5-HT2A BRET Eff %,5-HT2A receptor; [9],69%
same,EC50,5-HT2A receptor; [10],49 nM
same,5-HT2B BRET Eff %,5-HT2B receptor; [9],41%
same,EC50,5-HT2B receptor; [14],57 nM
same,5-HT2C BRET Eff %,5-HT2C receptor; [12],66%
same,EC50,5-HT2C receptor; [13],7.3 nM
Cc1cc2c(c3c(CCN)c[nH]c13)CCCO2 [Compound 110],5-HT2A BRET Eff %,5-HT2A receptor; [9],91%
same,EC50,5-HT2A receptor; [10],277 nM
same,5-HT2B BRET Eff %,5-HT2B receptor; [9],63%
same,EC50,5-HT2B receptor; [14],139 nM
same,5-HT2C BRET Eff %,5-HT2C receptor; [12],96%
same,EC50,5-HT2C receptor; [13],69 nM
"CN(C)CCc1cn2c3c(cccc13)OCC2 [Compound 135, [2-(2,3-Dihydro-[1,4]oxazino[2,3,4-hi]indol-6-yl)ethyl]dimethylamine Hydrochloride]",5-HT2A BRET Eff %,5-HT2A receptor; [9],76%
same,EC50,5-HT2A receptor; [10],767 nM
same,5-HT2B BRET Eff %,5-HT2B receptor; [9],42%
same,EC50,5-HT2B receptor; [14],10.7 nM
same,5-HT2C BRET Eff %,5-HT2C receptor; [12],96%
same,EC50,5-HT2C receptor; [13],9 nM
Cc1ccc(O)c2c(CCN(C)C)c[nH]c12 [drawing 38],5-HT1A Eff %,other receptor sites [1],76%
same,5-HT1B Eff %,other receptor sites [1],105%
same,5-HT1D Eff %,other receptor sites [1],112%
same,5-HT1E Eff %,other receptor sites [1],102%
same,5-HT4 Eff %,other receptor sites [1],13%
same,5-HT5A Eff %,other receptor sites [1],20%
same,5-HT7 Eff %,other receptor sites [1],3.4%
same,EC50,other receptor sites [2],23000 nM
same,EC50,other receptor sites [3],749 nM
same,EC50,other receptor sites [4],12600 nM
same,EC50,other receptor sites [5],257 nM
same,EC50,other receptor sites [6],167 nM
same,EC50,other receptor sites [7],5.2 nM
same,EC50,other receptor sites [8],309 nM
same,5-HT2A Eff %,5-HT2A receptor; [15],73%
same,EC50,"5-HT2A receptor; read-out: 5-HT2A EC50, Table 5, 5-HT2A receptor, compared with psilocin",66 nM
same,EC50,5-HT1F receptor,23 nM
same,5-HT1F Eff %,5-HT1F receptor,92%
same,EC50,"5-HT2B receptor; 5-HT2B EC50 (nM), Table 5, 5-HT2B receptor, compared with psilocin",3.6 nM
same,5-HT2B Eff %,5-HT2B receptor; [16],16%
same,EC50,5-HT6 receptor,9 nM
same,5-HT6 Eff %,5-HT6 receptor,48%
same,5-HT2C Eff %,"5-HT2C receptor; Table 5, 5-HT2C receptor, compared with psilocin",79%
same,EC50,"5-HT2C receptor; Table 5, 5-HT2C receptor, compared with psilocin, read-out: 5-HT2C EC50",6.9 nM
CN(C)CCc1c[nH]c2cccc(O)c12 [drawing 39],5-HT1A Eff %,other receptor sites [1],93%
same,5-HT1B Eff %,other receptor sites [1],94%
same,5-HT1D Eff %,other receptor sites [1],102%
same,5-HT1E Eff %,other receptor sites [1],90%
same,5-HT4 Eff %,other receptor sites [1],81%
same,5-HT5A Eff %,other receptor sites [1],48%
same,5-HT7 Eff %,other receptor sites [1],86%
same,EC50,other receptor sites [5],563 nM
same,EC50,other receptor sites [7],525 nM
same,5-HT2A Eff %,5-HT2A receptor; [15],82%
same,EC50,5-HT1F receptor,9.3 nM
same,5-HT1F Eff %,5-HT1F receptor,93%
same,5-HT2B Eff %,5-HT2B receptor; [16],63%
same,EC50,5-HT6 receptor,183 nM
same,5-HT6 Eff %,5-HT6 receptor,74%
